In brackets after ≈: the same amount, converted by molar mass. Like-named read-outs stand apart in the source and are kept apart here.
What was measured:
K-562 cells = assay: Cytotoxic activity against K-562 cells; type: cell-based; conditions: Homo sapiens, K562, 48 h, read-out: ED50, cytotoxic activity against K562
How it was run: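 HL-60 and K-562 cells (1×10^5 cells/ml) incubated 48 h at 37° C with sample dilutions from ethanol or DMSO stocks; cells counted by haemacytometer. ED50 (μg/ml) is the concentration giving 50% growth inhibition versus control, taken from linear regression of growth rate against log concentration.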

A549 cancer cells = assay: Cytotoxic activity against A549 cancer cells (sulforhodamin B method); type: cell-based; conditions: Homo sapiens, read-out: ED50, cytotoxic activity against A549
How it was run: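 Cells seeded at 8×10^4 per well, attached 24 h, then exposed 48 h to six log-spaced concentrations in triplicate. TCA-fixed, SRB-stained, OD read at 520 nm; growth inhibition computed relative to time-zero and untreated counts, IC50 from regression.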

HL-60 cells = assay: Cytotoxic activity against HL-60 cells; type: cell-based; conditions: Homo sapiens, read-out: ED50, cytotoxic activity against HL-60
Method: As in the test for the cytotoxic activity against L1210 cells, the test samples were dissoved in ethanol or dimethylsulfoxide in a certain concentration. 0.1 ml of the sample solution was mixed with 0.9 ml of a fresh medium to prepare the dilutions. To each two test tubes having a screw cap were added 100, 50, 25 μl, respectively, of the sample dilutions by means of a micropipet. To each test tube for the test group and the control group (2√n: n=number of the samples) was added 5 ml of the dilutions of HL-60 cells and K-562 cells which were cultured and activated before 24 hours from the beginning of experiment and then diluted in a concentration of 1×10^5 cells/mi. All test tubes were cultured for 48 hours in a CO2 incubator at 37° C. and then the number of cells was counted using a haemacytometer.
The ED50 value is defined as a concentration (μg/ml) of the sample which inhibits the growth of cancer cells by 50% of the control group and determined according to a method described in NIC's mannual (NIC=National Cancer Institue, U.S.A.). The growth rate Y(%) of cells in the presence of the test sample in each concentration was calculated according to the followign equation: […]
In the above equation, T means the average cell number per ml in the test group after incubation for 48 hours in the presence of the test samples in each concentration, C means the average cell number per ml in the control group after incubation for 48 hours, and Co means the average cell number per ml in the control group at the beginning of incubation. The Y(%) value at each concentration and log10 value of each concentration were obtained and the regression curve was constructed according to the following equation from those obtained values. In this case, when all the Y(%) value obtained at each concentration is greater than 55% or lower than 45%, the experiment was repeatedly conducted.
To construct the regression curve Y=A+BX the values A and B were obtained using the following equation. [formula]
In the above, the value N is the number of selected points which is greater than 2 and lower than, or identical with, the number of cencentration of the test sample, Xi is log(concentration) i, and Yi is the growth ratio at (concentration)i. The value of ED50 was obtained for those obtained slope and intercept.

L1210 cells [1] = assay: Cytotoxic activity against L1210 cells; type: cell-based; conditions: Mus musculus, read-out: ED50, cytotoxic activity against L1210
How it was run: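 Log-phase L1210 cells (5×10^4 cells/ml) in Fisher medium exposed 48 h at 37 °C in CO2 to three dilutions of sample dissolved in ethanol or DMSO. Cells counted by haemacytometer; growth relative to control; ED50 (μg/ml) from linear regression of growth % on log concentration.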

S-180 sarcoma cells = assay: Animal experiment using Sarcoma S-180 cells (survival of mouse); type: in vivo, male ICR mouse; conditions: for responders at 5 µmol/kg / responders at 15 µmol/kg / responders at 10 µmol/kg: 1200 h; for responders at 5 µmol/kg: read-out: Number of mouse survived for 50 days; for response vs control in vivo at 5 µmol/kg / response vs control in vivo at 15 µmol/kg / response vs control in vivo at 10 µmol/kg: read-out: T/C; for responders at 15 µmol/kg / response vs control in vivo at 15 µmol/kg: daily dose 15 μmole (mg/kg/day given per compound); for responders at 15 µmol/kg / responders at 10 µmol/kg: read-out: Number of mouse survived for 50 days (converted); for responders at 10 µmol/kg / response vs control in vivo at 10 µmol/kg: daily dose 10 μmole (mg/kg/day given per compound)
How it was run: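 Male ICR mice (20 to 25 g) received intraperitoneal transplants of 0.1 ml S-180 cell suspension (10^7 cells/ml), prepared from ascites by washing in cold physiological saline. After 24 hours, groups of 8 to 9 mice received 7 to 8 ip injections of sample in dimethylsulfoxide diluted with saline. Controls got 2% dimethylsulfoxide-saline. Survival (T/C, %) was scored against control death.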

S-180 sarcoma = conditions: Kor. J. Pharm. Soc., 34, 262-266 (1990); cited from earlier work
L1210 cells [2] = conditions: Kor. J. Pharm. Soc., 34, 262-266 (1990); cited from earlier work
S-180 ascitic cancer = conditions: mouse suffering from S-180 ascitic cancer; Chem. Pharm. Bull. 25, 2392-2395 (1977); cited from earlier work
L1210 cancer = conditions: Chem. Pharm. Bull. 25, 2392-2395 (1977); cited from earlier work
[3] = A549 cells, SRB method, 48 hours
[4] = ip, S-180 ICR mouse, intraperitoneal, 7 to 8 injections

Structure (SMILES)	IC50 (A549 cancer cells; [3]) [µg/mL]	IC50 (HL-60 cells; HL-60 cells, 48 hours, 37° C.) [µg/mL]	IC50 (L1210 cells [1]; L1210 cells, 48 hours, 37° C.) [µg/mL]	responders at 15 µmol/kg (S-180 sarcoma cells; [4]) [%]	response vs control in vivo at 15 µmol/kg (S-180 sarcoma cells; [4]) [%]	responders at 10 µmol/kg (S-180 sarcoma cells; [4]) [%]	response vs control in vivo at 10 µmol/kg (S-180 sarcoma cells; [4]) [%]	other results
O=c1[nH]cc(F)c(=O)[nH]1 [5-Fluorouracil, reference compound]	3.7 (≈ 28.4 µM)	0.2 (≈ 1.54 µM)	0.02 (≈ 0.154 µM)					IC50 (K-562 cells): 1 µg/mL (≈ 7.69 µM)
CC(=O)OC(CC=C(C)C)C1=CC(=O)c2c(O)ccc(O)c2C1=O (stereo not shown) [2-(1-acetyloxy-4-methyl-3-pentenyl)-5,8-dihydroxy-1,4-naphthoquinone]	1 (≈ 3.03 µM)	0.06 (≈ 0.182 µM)	< 0.01					responders at 5 µmol/kg (S-180 sarcoma cells; Mus musculus, S-180, ip): 0%; response vs control in vivo at 5 µmol/kg (S-180 sarcoma cells; ip, S-180 ICR mouse, intraperitoneal, daily dose 5 μmole (mg/kg/day given per compound), 7 to 8 injections): 160%; LSI in mouse suffering from S-180 sarcoma (S-180 sarcoma): 85%; ED50 value against L1210 cells (L1210 cells [2]): 0.01 µg/mL (≈ 0.0303 µM)
CC(C)=CCC(OC(=O)C=C(C)C=CC=C(C)C=CC1=C(C)CCCC1(C)C)C1=CC(=O)c2c(O)ccc(O)c2C1=O (stereo not drawn) [2-[1-(cis-retinoyl)oxy-4-methyl-3-pentenyl]-5,8-dihydroxy-1,4-naphthoquinone]	> 20	6.6 (≈ 11.6 µM)	7.1 (≈ 12.4 µM)	0	125			
CCCCCCCCCCCC(=O)OC(CC=C(C)C)C1=CC(=O)c2c(O)ccc(O)c2C1=O (stereo not shown)	> 20	1 (≈ 2.12 µM)	0.7 (≈ 1.49 µM)	0	110			
CCCCCCCCC(=O)OC(CC=C(C)C)C1=CC(=O)c2c(O)ccc(O)c2C1=O (stereo not shown) [2-(1-n-nonanoyloxy-4-methyl-3-pentenyl)-5,8-dihydroxy-1,4-naphthoquinone]	6.9 (≈ 16.1 µM)	1 (≈ 2.33 µM)	0.5 (≈ 1.17 µM)			0	206	
CCC=CCC=CCC=CCCCCCCCC(=O)OC(CC=C(C)C)C1=CC(=O)c2c(O)ccc(O)c2C1=O (stereo not shown) [2-(1-linolenyloxy-4-methyl-3-pentenyl)-5,8-dihydroxy-1,4-naphthoquinone]	> 20	4.8 (≈ 8.75 µM)	1.5 (≈ 2.73 µM)	0	125			
CCC(=O)OC(CC=C(C)C)C1=CC(=O)c2c(O)ccc(O)c2C1=O (stereo not shown) [2-(1-n-propionyloxy-4-methyl-3-pentenyl)-5,8-dihydroxy-1,4-naphthoquinone]								responders at 5 µmol/kg (S-180 sarcoma cells; Mus musculus, S-180, ip): 0%; response vs control in vivo at 5 µmol/kg (S-180 sarcoma cells; Mus musculus, S-180, ip): 100%; IC50 (A549 cancer cells; A549, 48 h): 1.9 µg/mL (≈ 5.52 µM); IC50 (HL-60 cells; HL-60, 48 h): 0.04 µg/mL (≈ 0.116 µM); IC50 (L1210 cells [1]; L1210, 48 h): 0.03 µg/mL (≈ 0.0871 µM)
CC(C)=CCC(OC(=O)c1ccccc1)C1=CC(=O)c2c(O)ccc(O)c2C1=O (stereo not shown) [2-(1-benzoyloxy-4-methyl-3-pentenyl)-5,8-dihydroxy-1,4-naphthoquinone]	2.1 (≈ 5.35 µM)	0.1 (≈ 0.255 µM)	0.1 (≈ 0.255 µM)			0	135	
CC(C)=CC[C@@H](O)C1=CC(=O)c2c(O)ccc(O)c2C1=O [shikonin]								increase in life span (LSI) (S-180 ascitic cancer): 92%; effect in mouse suffering from L1210 cancer (L1210 cancer): does not show a significant effect
CC(C)=CCC(OC(=O)C(C)C)C1=CC(=O)c2c(O)ccc(O)c2C1=O (stereo not shown) [2-(1-isobutanoyloxy-4-methyl-3-pentenyl)-5,8-dihydroxy-1,4-naphthoquinone]	1.9 (≈ 5.3 µM)	0.2 (≈ 0.558 µM)	0.003 (≈ 0.00837 µM)			12.5	185	
CCCCC(=O)OC(CC=C(C)C)C1=CC(=O)c2c(O)ccc(O)c2C1=O (stereo not shown) [2-(1-n-pentanoyloxy-4-methyl-3-pentenyl)-5,8-dihydroxy-1,4-naphthoquinone]	2.5 (≈ 6.71 µM)	0.6 (≈ 1.61 µM)	0.2 (≈ 0.537 µM)			0	165	
CCCCCCCCCCCCCCCC(=O)OC(CC=C(C)C)C1=CC(=O)c2c(O)ccc(O)c2C1=O (stereo not shown) [2-(1-palmityloxy-4-methyl-3-pentenyl)-5,8-dihydroxy-1,4-naphthoquinone]	> 20	3 (≈ 5.7 µM)	2.1 (≈ 3.99 µM)	0	109			
CC=CC=CC(=O)OC(CC=C(C)C)C1=CC(=O)c2c(O)ccc(O)c2C1=O (stereo not shown) [2-[1-(2,4-hexadienoyloxy)-4-methyl-3-pentenyl]-5,8-dihydroxy-1,4-naphthoquinone]	0.7 (≈ 1.83 µM)	0.6 (≈ 1.57 µM)	0.5 (≈ 1.31 µM)			25	185	
CCCCCCCC(=O)OC(CC=C(C)C)C1=CC(=O)c2c(O)ccc(O)c2C1=O (stereo not shown) [2-(1-n-octanoyloxy-4-methyl-3-pentenyl)-5,8-dihydroxy-1,4-naphthoquinone]	4.3 (≈ 10.4 µM)	0.7 (≈ 1.69 µM)	0.2 (≈ 0.483 µM)	22.2	235			
CC(C)=CCC(OC(=O)Cc1ccccc1)C1=CC(=O)c2c(O)ccc(O)c2C1=O (stereo not shown) [2-(1-phenylacetyloxy-4-methyl-3-pentenyl)-5,8-dihydroxy-1,4-naphthoquinone]	1.1 (≈ 2.71 µM)	0.4 (≈ 0.984 µM)	0.1 (≈ 0.246 µM)			0	183	

— patent US5696276A, “Process for preparing 5,8-dihydroxynaphthoquinone derivatives, novel 5,8-dihydroxynaphthoquinone derivatives and their use as anticancer agent” (Kuhnil Pharmaceutical Co., Ltd., priority 1993, dated 1997)
